{"source": "ChEMBL document CHEMBL1201862", "about": "“PubChem BioAssay data set” (2004)", "key": {"[1]": {"biological_target": "T1, Tyrosine-protein phosphatase non-receptor type 7 (Homo sapiens, UniProt P35236)", "T1 sequence (P35236 whole entry)": "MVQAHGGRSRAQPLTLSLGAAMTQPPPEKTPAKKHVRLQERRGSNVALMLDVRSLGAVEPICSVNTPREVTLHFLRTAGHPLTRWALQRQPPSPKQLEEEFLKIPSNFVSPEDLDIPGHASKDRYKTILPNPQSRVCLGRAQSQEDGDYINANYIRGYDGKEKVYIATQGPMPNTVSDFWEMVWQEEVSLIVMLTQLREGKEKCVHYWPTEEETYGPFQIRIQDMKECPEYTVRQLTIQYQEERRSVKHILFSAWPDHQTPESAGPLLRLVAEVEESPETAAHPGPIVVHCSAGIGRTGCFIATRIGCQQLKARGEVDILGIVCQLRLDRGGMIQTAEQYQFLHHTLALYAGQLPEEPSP", "format": "functional"}, "[2]": {"biological_target": "T2, Tyrosine-protein phosphatase non-receptor type 22 (Homo sapiens, UniProt Q9Y2R2)", "T2 sequence (Q9Y2R2 whole entry)": "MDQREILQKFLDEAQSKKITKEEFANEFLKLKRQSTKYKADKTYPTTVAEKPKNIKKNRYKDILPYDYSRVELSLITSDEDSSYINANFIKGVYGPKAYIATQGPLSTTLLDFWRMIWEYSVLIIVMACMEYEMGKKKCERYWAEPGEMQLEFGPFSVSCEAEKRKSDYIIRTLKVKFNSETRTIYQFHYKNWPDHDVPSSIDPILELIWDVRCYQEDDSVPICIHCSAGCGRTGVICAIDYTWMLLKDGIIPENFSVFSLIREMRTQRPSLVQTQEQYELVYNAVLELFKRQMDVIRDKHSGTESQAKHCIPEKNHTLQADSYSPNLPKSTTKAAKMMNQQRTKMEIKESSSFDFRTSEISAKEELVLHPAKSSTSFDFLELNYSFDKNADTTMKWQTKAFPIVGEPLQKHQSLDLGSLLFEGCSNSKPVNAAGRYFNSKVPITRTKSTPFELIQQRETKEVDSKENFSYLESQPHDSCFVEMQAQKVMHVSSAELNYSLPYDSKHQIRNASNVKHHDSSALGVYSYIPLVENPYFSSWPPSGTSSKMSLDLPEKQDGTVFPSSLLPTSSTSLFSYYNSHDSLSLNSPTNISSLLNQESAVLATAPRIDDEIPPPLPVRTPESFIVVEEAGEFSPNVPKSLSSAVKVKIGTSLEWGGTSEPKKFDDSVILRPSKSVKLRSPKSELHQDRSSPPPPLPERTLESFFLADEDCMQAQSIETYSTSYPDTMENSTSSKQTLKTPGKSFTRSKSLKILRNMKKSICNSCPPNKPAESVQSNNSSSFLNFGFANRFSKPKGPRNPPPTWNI", "format": "functional"}, "[3]": {"biological_target": "T2, Tyrosine-protein phosphatase non-receptor type 22", "format": "functional", "remark": "listed apart in the source"}, "[4]": {"biological_target": "Lysine-specific demethylase 4A (Homo sapiens, UniProt O75164)", "sequence (O75164 whole entry)": "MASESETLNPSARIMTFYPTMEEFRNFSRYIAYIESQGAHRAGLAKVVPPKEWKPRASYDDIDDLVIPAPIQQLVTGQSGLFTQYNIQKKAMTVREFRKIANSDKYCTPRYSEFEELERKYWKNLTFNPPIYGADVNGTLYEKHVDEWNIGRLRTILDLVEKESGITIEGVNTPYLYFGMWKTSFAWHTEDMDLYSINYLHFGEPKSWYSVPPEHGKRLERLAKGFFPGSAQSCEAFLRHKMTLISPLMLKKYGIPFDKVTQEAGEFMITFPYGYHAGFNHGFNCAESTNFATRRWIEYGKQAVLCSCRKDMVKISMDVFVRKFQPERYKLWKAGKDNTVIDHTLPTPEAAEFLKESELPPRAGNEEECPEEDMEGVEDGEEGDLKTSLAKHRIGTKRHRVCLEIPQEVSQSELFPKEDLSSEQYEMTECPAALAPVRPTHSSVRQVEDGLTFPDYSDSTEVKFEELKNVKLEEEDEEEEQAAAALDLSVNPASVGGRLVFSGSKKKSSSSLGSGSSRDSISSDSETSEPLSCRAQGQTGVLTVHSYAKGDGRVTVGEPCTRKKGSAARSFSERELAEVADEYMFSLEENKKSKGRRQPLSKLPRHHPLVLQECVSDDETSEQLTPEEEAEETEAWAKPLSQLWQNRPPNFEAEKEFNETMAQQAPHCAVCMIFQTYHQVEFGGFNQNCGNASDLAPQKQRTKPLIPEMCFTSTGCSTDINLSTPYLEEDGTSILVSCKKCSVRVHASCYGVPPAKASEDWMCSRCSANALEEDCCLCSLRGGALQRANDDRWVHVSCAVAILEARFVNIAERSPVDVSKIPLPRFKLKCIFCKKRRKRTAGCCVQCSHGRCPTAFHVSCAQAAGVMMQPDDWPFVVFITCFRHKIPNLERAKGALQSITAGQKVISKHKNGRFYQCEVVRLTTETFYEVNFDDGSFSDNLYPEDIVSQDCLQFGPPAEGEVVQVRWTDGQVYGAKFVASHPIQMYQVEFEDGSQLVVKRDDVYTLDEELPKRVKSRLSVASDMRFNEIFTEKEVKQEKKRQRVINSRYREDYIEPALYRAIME", "experiment": "JMJD2A histone demethylase inhibitors, dose response, selectivity assay for GASC-1 inhibitor project, biochemical, DELFIA europium, cherry-picked samples (AID 488840)"}, "[5]": {"biological_target": "T3, Lysine-specific demethylase 4C (Homo sapiens, UniProt Q9H3R0)", "T3 sequence (Q9H3R0 whole entry)": "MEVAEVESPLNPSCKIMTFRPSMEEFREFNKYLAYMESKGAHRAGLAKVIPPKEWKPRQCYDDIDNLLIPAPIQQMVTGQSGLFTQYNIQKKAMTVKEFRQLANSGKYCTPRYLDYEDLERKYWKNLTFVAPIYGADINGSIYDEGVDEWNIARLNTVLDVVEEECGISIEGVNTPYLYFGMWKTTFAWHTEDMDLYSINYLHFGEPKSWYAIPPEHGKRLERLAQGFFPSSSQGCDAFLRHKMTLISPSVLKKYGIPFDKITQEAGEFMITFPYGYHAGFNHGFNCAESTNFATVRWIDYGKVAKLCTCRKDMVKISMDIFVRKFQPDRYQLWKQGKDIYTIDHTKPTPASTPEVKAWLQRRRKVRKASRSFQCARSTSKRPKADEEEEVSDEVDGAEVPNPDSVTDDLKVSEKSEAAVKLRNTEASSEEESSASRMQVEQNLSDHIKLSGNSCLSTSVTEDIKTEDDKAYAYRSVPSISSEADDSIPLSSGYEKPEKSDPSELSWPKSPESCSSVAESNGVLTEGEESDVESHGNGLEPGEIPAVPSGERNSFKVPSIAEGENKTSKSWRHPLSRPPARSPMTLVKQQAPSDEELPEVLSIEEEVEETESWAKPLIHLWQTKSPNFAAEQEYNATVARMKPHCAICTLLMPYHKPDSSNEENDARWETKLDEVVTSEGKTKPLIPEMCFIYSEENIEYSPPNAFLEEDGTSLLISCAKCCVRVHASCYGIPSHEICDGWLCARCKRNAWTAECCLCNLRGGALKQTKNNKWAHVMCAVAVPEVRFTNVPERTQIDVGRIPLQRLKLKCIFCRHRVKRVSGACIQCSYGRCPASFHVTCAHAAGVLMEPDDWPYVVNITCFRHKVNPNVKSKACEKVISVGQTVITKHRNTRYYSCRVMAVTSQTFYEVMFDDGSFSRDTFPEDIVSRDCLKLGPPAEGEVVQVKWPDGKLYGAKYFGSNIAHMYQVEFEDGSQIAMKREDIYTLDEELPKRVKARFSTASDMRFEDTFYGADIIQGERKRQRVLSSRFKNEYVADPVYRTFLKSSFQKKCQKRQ", "experiment": "GASC-1 (JMJD2C) histone demethylase inhibitors, dose response, biochemical, DELFIA europium, cherry-picked samples (AID 488835)", "format": "functional"}, "Coagulation factor XII": {"biological_target": "T4, Coagulation factor XII (Homo sapiens, UniProt P00748)", "T4 sequence (P00748 whole entry)": "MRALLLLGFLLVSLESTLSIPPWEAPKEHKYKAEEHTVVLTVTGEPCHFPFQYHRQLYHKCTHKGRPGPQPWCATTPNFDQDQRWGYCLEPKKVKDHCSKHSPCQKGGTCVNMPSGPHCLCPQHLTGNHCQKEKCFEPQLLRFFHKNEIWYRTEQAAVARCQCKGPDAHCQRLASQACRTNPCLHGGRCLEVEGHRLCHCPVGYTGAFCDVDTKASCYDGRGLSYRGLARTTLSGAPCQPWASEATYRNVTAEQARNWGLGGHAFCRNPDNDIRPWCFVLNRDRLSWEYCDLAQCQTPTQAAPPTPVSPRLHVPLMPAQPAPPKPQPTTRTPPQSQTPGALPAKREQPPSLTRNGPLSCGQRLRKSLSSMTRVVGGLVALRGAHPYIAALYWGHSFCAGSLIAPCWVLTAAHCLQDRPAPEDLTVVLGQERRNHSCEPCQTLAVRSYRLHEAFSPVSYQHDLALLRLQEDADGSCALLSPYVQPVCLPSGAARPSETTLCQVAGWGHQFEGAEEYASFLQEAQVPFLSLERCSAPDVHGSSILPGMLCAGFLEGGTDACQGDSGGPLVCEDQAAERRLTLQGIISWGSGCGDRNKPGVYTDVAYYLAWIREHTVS", "format": "functional"}, "[6]": {"experiment": "growth suppression of PTEN-null colon cells, dose response, cell-based, HCT116 PTEN knockout (AID 1047);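 also: HCT116 colon tumor cells with PTEN knocked out; cells exposed to compound for 60 hours before readout; potency for loss of cell viability measured by luminescence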", "format": "functional"}, "[7]": {"experiment": "growth suppression of beta-catenin-knockout colon cells, dose response, cell-based, HCT116, human colon tumor (AID 1045);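 also: HCT116 colon tumor cells with beta catenin knocked out; cells exposed to compound for 60 hours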", "format": "functional"}, "Cytochrome P450 2C9": {"biological_target": "Cytochrome P450 2C9 (Homo sapiens, UniProt P11712)", "sequence (P11712 whole entry)": "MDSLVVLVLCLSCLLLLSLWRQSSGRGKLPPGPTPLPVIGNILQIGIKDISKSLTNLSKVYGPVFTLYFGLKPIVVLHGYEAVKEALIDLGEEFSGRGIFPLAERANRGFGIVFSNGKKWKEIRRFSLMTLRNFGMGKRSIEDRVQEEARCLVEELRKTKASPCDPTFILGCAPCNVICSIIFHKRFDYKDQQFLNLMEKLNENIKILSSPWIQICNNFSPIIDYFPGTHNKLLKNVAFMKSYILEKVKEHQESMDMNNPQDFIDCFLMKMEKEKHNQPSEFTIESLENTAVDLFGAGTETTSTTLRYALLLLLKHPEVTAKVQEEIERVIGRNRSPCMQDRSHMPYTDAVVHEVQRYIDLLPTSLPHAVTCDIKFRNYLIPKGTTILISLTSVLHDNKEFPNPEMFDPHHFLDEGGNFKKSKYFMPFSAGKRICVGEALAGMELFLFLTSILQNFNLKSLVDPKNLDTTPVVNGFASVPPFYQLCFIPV"}, "Cytochrome P450 3A4": {"biological_target": "Cytochrome P450 3A4 (Homo sapiens, UniProt P08684)", "sequence (P08684 whole entry)": "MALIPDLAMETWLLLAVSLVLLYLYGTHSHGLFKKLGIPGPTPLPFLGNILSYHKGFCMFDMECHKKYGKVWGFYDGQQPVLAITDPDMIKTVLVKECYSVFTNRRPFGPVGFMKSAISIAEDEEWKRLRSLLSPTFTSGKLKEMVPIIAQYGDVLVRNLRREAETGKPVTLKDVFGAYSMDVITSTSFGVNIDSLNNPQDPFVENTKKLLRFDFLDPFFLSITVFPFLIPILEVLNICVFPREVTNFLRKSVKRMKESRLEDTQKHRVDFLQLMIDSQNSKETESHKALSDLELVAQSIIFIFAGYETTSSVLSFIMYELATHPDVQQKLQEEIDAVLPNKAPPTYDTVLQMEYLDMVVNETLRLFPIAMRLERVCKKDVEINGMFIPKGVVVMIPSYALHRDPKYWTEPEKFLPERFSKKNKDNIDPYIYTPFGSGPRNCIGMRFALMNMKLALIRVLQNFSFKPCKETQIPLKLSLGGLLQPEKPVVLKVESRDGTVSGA"}, "[8]": {"biological_target": "T5, Calpain-2 catalytic subunit (Sus scrofa, UniProt P43367)", "T5 sequence (P43367 whole entry)": "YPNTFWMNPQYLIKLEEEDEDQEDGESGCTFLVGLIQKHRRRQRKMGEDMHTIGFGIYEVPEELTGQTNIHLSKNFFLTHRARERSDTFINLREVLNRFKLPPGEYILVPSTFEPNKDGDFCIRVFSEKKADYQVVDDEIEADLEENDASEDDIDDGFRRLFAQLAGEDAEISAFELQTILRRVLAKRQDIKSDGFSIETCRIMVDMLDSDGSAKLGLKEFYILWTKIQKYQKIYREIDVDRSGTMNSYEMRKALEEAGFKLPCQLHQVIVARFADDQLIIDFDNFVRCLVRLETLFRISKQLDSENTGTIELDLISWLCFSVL", "experiment": "pig calpain II inhibitor potency, dose response, biochemical, fluorogenic peptide substrate (AID 1420)", "format": "functional"}, "[9]": {"biological_target": "Intestinal-type alkaline phosphatase (Homo sapiens, UniProt P09923)", "sequence (P09923 whole entry)": "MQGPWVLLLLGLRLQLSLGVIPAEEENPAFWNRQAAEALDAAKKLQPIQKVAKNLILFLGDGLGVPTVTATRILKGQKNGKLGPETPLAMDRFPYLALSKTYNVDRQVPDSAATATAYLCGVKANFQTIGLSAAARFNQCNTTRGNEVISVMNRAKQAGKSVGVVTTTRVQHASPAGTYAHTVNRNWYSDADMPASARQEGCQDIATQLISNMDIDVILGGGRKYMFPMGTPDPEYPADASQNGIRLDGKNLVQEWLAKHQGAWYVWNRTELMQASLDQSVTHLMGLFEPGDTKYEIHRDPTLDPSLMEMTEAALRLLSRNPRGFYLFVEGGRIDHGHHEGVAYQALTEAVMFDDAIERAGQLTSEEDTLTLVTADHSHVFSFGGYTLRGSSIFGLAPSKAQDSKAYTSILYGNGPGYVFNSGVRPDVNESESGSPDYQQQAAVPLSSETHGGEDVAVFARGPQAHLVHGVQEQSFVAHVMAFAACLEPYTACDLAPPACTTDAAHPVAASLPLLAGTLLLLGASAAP", "experiment": "human intestinal alkaline phosphatase activators, dose response, biochemical, luminescence, uHTS hits (AID 463120)", "format": "functional"}, "[10]": {"biological_target": "T6, Nucleotide-binding oligomerization domain-containing protein 1 (Homo sapiens, UniProt Q9Y239)", "T6 sequence (Q9Y239 whole entry)": "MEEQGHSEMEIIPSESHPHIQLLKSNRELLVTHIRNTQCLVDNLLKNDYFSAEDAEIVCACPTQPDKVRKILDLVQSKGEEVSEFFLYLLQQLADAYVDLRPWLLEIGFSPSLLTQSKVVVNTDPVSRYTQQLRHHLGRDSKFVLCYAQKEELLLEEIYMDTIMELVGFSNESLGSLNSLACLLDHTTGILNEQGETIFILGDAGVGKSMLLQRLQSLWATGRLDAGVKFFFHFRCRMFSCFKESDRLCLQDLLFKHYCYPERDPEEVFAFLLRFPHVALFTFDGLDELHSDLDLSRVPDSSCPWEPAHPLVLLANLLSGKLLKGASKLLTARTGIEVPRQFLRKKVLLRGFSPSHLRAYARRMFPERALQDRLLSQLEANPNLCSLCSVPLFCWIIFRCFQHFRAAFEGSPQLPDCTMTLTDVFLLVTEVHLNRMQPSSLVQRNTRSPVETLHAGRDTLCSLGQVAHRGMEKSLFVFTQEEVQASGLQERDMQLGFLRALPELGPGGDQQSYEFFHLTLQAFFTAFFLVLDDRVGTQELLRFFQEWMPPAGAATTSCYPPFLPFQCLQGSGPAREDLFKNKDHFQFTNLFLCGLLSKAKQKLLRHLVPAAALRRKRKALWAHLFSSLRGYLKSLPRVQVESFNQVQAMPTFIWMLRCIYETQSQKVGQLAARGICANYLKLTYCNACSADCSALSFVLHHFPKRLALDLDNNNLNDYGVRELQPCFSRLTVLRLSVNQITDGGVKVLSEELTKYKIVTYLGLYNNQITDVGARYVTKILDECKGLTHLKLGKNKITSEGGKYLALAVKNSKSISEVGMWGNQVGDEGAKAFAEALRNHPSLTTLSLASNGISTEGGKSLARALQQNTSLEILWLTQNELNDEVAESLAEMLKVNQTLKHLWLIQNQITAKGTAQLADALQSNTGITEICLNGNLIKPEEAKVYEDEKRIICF", "experiment": "SAR analysis of compounds that inhibit NOD1 - Set 3. [Related pubchem assays (depositor defined):AID1566, AID1575, AID1578, AID1849, AID1852, AID2333, AID2335, AID2466]", "format": "functional"}, "Tumor necrosis factor": {"biological_target": "Tumor necrosis factor (Homo sapiens, UniProt P01375)", "sequence (P01375 whole entry)": "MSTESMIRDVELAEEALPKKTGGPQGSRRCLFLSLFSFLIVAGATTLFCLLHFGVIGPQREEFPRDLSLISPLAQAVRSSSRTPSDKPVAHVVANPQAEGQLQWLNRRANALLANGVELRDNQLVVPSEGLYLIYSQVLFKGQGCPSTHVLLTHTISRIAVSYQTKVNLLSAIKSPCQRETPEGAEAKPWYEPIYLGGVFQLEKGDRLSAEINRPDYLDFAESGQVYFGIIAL", "experiment": "TNFa-triggered NF-kB activation inhibitors, SAR follow-up, cell-based, set 3 (AID 2801)", "format": "functional"}, "HEK293": {"test_system": "HEK293", "experiment": "SAR analysis of compounds that are cytotoxic to HEK293 - Set 3. [Related pubchem assays (depositor defined):AID1575, AID1578, AID1848, AID1849, AID2001, AID2333, AID2334, AID2335, AID2337, AID2469]", "format": "functional, cell-based", "conditions": "Homo sapiens"}, "[11]": {"biological_target": "Nucleotide-binding oligomerization domain-containing protein 2 (Homo sapiens, UniProt Q9HC29)", "sequence (Q9HC29 whole entry, the tested form may be a part)": "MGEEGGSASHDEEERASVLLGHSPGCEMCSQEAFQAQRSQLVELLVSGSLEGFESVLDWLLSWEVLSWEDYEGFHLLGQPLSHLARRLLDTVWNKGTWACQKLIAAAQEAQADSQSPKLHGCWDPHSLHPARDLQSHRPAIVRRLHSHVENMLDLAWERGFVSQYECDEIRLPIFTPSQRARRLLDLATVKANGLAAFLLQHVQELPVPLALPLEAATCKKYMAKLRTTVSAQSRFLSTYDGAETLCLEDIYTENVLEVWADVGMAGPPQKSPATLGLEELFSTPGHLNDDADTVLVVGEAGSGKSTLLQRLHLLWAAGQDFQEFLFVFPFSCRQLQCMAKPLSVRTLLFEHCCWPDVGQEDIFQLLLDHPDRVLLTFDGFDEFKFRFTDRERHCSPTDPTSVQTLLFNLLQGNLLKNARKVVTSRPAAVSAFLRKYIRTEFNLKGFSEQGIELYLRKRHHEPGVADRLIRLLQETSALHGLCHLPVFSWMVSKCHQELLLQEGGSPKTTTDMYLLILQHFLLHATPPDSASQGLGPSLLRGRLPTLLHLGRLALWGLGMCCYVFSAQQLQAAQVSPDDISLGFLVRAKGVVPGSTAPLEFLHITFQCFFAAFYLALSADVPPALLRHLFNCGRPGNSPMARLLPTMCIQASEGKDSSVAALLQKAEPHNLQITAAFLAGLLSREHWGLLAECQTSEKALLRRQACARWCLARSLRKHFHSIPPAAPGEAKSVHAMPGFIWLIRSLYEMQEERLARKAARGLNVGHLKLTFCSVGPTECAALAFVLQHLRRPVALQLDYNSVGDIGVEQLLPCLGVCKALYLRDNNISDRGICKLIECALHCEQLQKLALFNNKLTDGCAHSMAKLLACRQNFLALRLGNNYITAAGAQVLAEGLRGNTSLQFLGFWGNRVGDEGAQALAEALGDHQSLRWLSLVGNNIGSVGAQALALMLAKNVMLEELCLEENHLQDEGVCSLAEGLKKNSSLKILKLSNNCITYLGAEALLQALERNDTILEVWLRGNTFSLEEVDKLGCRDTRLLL", "experiment": "NOD2 signaling inhibitors, analog potency, SAR follow-up, cell-based, set 3 (AID 2799)", "format": "functional"}}, "note": "Activity calls are given as the source filed them."}
{"smiles": "Cc1nn(Cc2cccc(C(=O)NC34CC5CC(CC(C5)C3)C4)c2)c(C)c1Br", "values": [{"measurement": "IC50", "setting": "[1]", "result": "> 79.4 µM (inactive)"}, {"measurement": "IC50", "setting": "[2]", "result": "> 79.4 µM (inactive)"}, {"measurement": "IC50", "setting": "[3]", "result": "> 79.4 µM (inactive)"}]}
{"smiles": "CC(C)Oc1ccc(Cc2c(O)nc(O)nc2O)cc1", "values": [{"measurement": "AC50", "setting": "[4]", "result": "17.5 µM (active)"}, {"measurement": "AC50", "setting": "[5]", "result": "2.86 µM (active)"}]}
{"smiles": "COc1ccc(C2C(C(C)=O)=C(O)C(=O)N2c2nccs2)cc1OC", "note": "(configuration not stated)", "values": [{"measurement": "IC50", "setting": "Coagulation factor XII", "result": "> 50 µM (inactive)"}]}
{"smiles": "Cc1ccccc1NC(=O)c1cccc2nc3ccccc3nc12", "values": [{"measurement": "EC50", "setting": "[6]", "result": "23.8 µM (active)"}, {"measurement": "EC50", "setting": "[7]", "result": "21.9 µM (active)"}, {"measurement": "IC50", "setting": "Coagulation factor XII", "result": "> 50 µM (inactive)"}, {"measurement": "AC50", "setting": "Cytochrome P450 2C9", "result": "8.91 µM (inconclusive)"}, {"measurement": "AC50", "setting": "Cytochrome P450 3A4", "result": "inconclusive"}]}
{"smiles": "Cc1cc2cc3c(cc2nc1SCC(=O)Nc1nc(C)c(C)s1)OCO3", "values": [{"measurement": "IC50", "setting": "[8]", "result": "24.1 µM (not active)"}, {"measurement": "EC50", "setting": "[9]", "result": "25 µM (active)"}]}
{"smiles": "Nc1nc2ccccc2n1S(=O)(=O)c1cccc2ccccc12", "values": [{"measurement": "IC50", "setting": "[10]", "result": "> 20 µM (inactive)"}, {"measurement": "IC50", "setting": "Tumor necrosis factor", "result": "> 20 µM (inactive)"}, {"measurement": "IC50", "setting": "HEK293", "result": "> 20 µM (inactive)"}, {"measurement": "IC50", "setting": "[11]", "result": "> 20 µM (inactive)"}]}
